# Assay results from patent publication US20220031680A1, “Donecopride As Neuroprotective Agent In the Treatment of Neurodegenerative Diseases” (priority 2018, published 2022).
# Marks after values point to notes of the source that are not given here.
# Key:
# [1] = system: Aβ42; test: Aβ42 levels in brain extracts of 5×FAD mice (ELISA); assay type: in vivo, mouse; settings: brain extract; 1 mg/kg i.p. twice a week for two months, 2 to 4 months of age
# Description: Animal experiments were carried out in accordance with the Directive by the Council of the European Communities of Nov. 24, 1986 (86/609/EEC). All efforts were made to minimize animal suffering and to reduce the number of mice used. The generation of 5×FAD mice was described in Oakley et al. (2006) J. Neurosci. 26:10129-10140. These transgenic mice overexpress both human APP (695) harboring the Swedish (K670N, M671L), Florida (1716V) and London (V7171) familial AD (FAD) mutations and human Presenilin 1 (PS1) harboring the two FAD mutations M146L and L286V. Expression of both transgenes is regulated by neuronal-specific elements of the mouse Thy1 promoter. The 5×FAD strain (B6/SJL genetic background) was maintained by crossing hemizygous transgenic mice with B6/SJL F1 breeders. The 5×FAD strain (C57BL/6J genetic background) was maintained by crossing hemizygous transgenic mice with C57BL/6J F1 breeders. All animals were genotyped by PCR using tail genomic DNA. Transgenic and WT mice were bred in our animal facility, had access to food and water ad libitum and were housed under a 12 h light-dark cycle at 22-24° C. Female 5×FAD mice were used in this study. For each experiment, the age of mice is indicated in months (with a two-week range).
# Compounds were resuspended in DMSO (37.5 μg/μl, stored at −20° C.) and freshly diluted 1:250 in 0.9% NaCl prior administration. Vehicle solution (0.9% NaCl, 0.4% DMSO) was used as control.
# 5×FAD mice received chronic treatments with drugs or vehicle according to 2 different protocols. In each experiment, drugs or vehicle solution were administered i.p. twice a week (1 mg/kg). In “Protocol 1”, mice (n=6-7 mice per group) were treated with compounds for two months, from 2 to 4 months of age. In “Protocol 2”, mice (n=7) were treated with compounds for three months, from 1 month to 4 months of age. At the end of each protocol, mice were anesthetized with a mixture of 100 mg/kg ketamine and 10 mg/kg xylazine in saline solution and perfused transcardially with PBS. Brains were quickly isolated on ice, the olfactory bulbs and cerebellum removed and the two hemispheres divided. […]
# (§1) ELISA kits from IBL International (Hamburg, Germany) for the dosage of Aβ40 (human amyloid β (1-40) assay kit, #27713) or Aβ42 (human amyloid β (1-42) assay kit, #27719) were used according to the manufacturer's instructions. Reactions were read at 620 nm and 450 nm using an Infinite 2000 luminescence counter. The obtained values were normalized to the protein concentration of each sample, measured using a BCA protein assay (Sigma-Aldrich). […]
# Aβ40 and Aβ42 were quantified from brain extract in soluble and insoluble fractions. […]
# [2] = system: GFAP; test: Astrogliosis (GFAP staining) in 5×FAD mouse brain; assay type: in vivo; settings: 1 mg/kg twice a week for 3 months; for GFAP staining in frontal cortex or hippocampus: compared to controls; for decrease of GFAP staining in entorhinal brain slices: compared to vehicle
# Description: (§2) 5×FAD mice received chronic treatments with drugs or vehicle according to 2 different protocols. In each experiment, drugs or vehicle solution were administered i.p. twice a week (1 mg/kg). In “Protocol 1”, mice (n=6-7 mice per group) were treated with compounds for two months, from 2 to 4 months of age. In “Protocol 2”, mice (n=7) were treated with compounds for three months, from 1 month to 4 months of age. At the end of each protocol, mice were anesthetized with a mixture of 100 mg/kg ketamine and 10 mg/kg xylazine in saline solution and perfused transcardially with PBS. Brains were quickly isolated on ice, the olfactory bulbs and cerebellum removed and the two hemispheres divided. One hemisphere was frozen on dry ice and stored at −80° C. for biochemical analysis, while the other was post-fixed in 4% PFA for immunohistochemistry (IHC).
# (§3) Thirty-micrometer-thick sections were cut using a vibratome (Microm HM 650V, Thermo Scientific, Saint Herblain, France) and stored in cryoprotectant medium at −20° C. For the labeling of amyloid plaques, free-floating tissue sections of frontal cortex, hippocampus and entorhinal cortex (coordinates from the bregma: frontal cortex=1.98 mm, hippocampus=−1.94 mm, entorhinal cortex=−3.08 mm) were extensively washed in PBS and then incubated in blocking solution (PBS; 3% BSA; 0.1% Triton X-100) for 1 h. Sections were stained with Hoechst dye (1:1000, Life Technologies, Saint Aubin, France) for 15 minutes to detect cell nuclei and then with freshly prepared thioflavin T solution (#T3516-5G, Sigma-Aldrich) (final concentration: 0.01 mg/ml in blocking buffer) for 15 minutes. After washing in 70% ethanol for 5 minutes, samples were mounted on poly-lysine slides with coverslips. For GFAP (glial fibrillary acidic protein) staining, free-floating brain sections were blocked as before and incubated with polyclonal rabbit anti-GFAP (1:1000, Z0334, Dako, Les Ullis, France) at 4° C. overnight. After thioflavin T staining and washing with 70% ethanol, the secondary Alexafluor 594 goat anti-rabbit antibody (1:1000, A11012, Life Technologies) was added for 2 h. PBS washes and mounting were performed as described before.
# (§4) Images were acquired with an Axiolmager Z1 microscope (Carl Zeiss S.A.S., Marly le Roi, France). Analysis of thioflavin T staining was performed blindly and data are presented as the mean number of particles per mm^2 in two to three tissue sections from the same brain area/animal (Image J software). GFAP expression was quantified using Image J software and results are expressed as area fractions.
# (§5) 28 female 5×FAD mice (C57BL/6J genetic background) were used in this study. Mice received vehicle or compounds (1 mg/kg) i.p., twice a week for three months, from 1 to 4 months of age.
# [3] = system: amyloid plaques; test: Number of amyloid plaques (thioflavin T) in 5×FAD mouse brain; assay type: in vivo; settings: 1 mg/kg twice a week for 3 months; for Amyloid plaque number in hippocampus: compared to controls
# Description: as §2, §3, §4, §5
# Anti-amyloid effect. Frontal cortex, hippocampus and entorhinal cortex were analyzed as representative areas of 5×FAD mouse brain (frontal, median and caudal sections) and of human brain regions that are affected early by Alzheimer's disease and are highly enriched in amyloid deposits.
# [4] = system: Aβ42; test: Aβ42 concentration in cerebrospinal fluid of 5×FAD mice; assay type: in vivo, mouse; settings: 1 mg/kg twice a week for 3 months; compared to controls
# Description: as §2
# Mice were anesthetized and mounted onto a stereotaxic instrument. The neck skin was cut and subcutaneous tissue and muscles separated with the help of micro-retractors (Fine Science Tools, Heidelberg, Germany). Mice were then laid down so that the head formed an angle of about 135° with the body (Liu and Duff (2008) J. Vis. Exp. 10:960). A capillary tube (Borosilicate glass, B100-75-10, Sutter Instruments, Novato, Calif., USA) was used to punch the dura mater of the cisterna magna. CSF was collected by capillary action and transferred to 0.5 mL microtubes, immediately frozen on dry ice and stored at −80° C. until use. Once thawed, samples were heated at 60° C. for 5 min as described in the international application WO 2008/009868 and analyzed without further freezing-thawing cycles.
# as §1
Compound,"Aβ42, insoluble fraction (% of controls) [1]","Aβ42, soluble fraction (% of controls) [1]",GFAP staining in frontal cortex or hippocampus [2],decrease of GFAP staining in entorhinal brain slices [2],Amyloid plaque number in hippocampus [3],reduction of the number of amyloid plaques in entorhinal cortex ([3]; compared to vehicle),Aβ42 concentration in cerebrospinal fluid (CSF) [4],reduction of the number of amyloid plaques in frontal cortex ([3]; compared to vehicle)
COc1cc(N)c(F)cc1C(=O)CCC1CCN(CC2CCCCC2)CC1 [Flucopride],73.16 % of controls,30.19**** % of controls,not significantly different,51±5%,not significantly different,28±6%,not significantly different,–
COc1cc(N)c(Cl)cc1C(=O)CCC1CCN(CC2CCCCC2)CC1 [Donecopride],67.85* % of controls,65.93* % of controls,not significantly different,54±10%,not significantly different,24±4%,not significantly different,16±3%
